Source: the NIST ThermoML archive (doi:10.1021/je400055v)
Numbers after ± are expanded uncertainties.

Assay: xn = mol fraction of the nth substance listed
Conditions: Liquid, Vibrating tube method, x1 = 0.4891

Cc1cccc(O)c1 [3-methylphenol] + Cc1ccccc1O
Conditions | mass density [kg/m3]
313.19 K, 103.35 kPa | 1023.8 ± 0.5
313.19 K, 206.8 kPa | 1024.3 ± 0.5
313.19 K, 308.94 kPa | 1024.9 ± 0.5
313.19 K, 406.72 kPa | 1025.5 ± 0.5
313.19 K, 509.16 kPa | 1026 ± 0.5
313.19 K, 609.17 kPa | 1026.6 ± 0.5
313.19 K, 710.69 kPa | 1027.1 ± 0.5
313.19 K, 813.34 kPa | 1027.7 ± 0.5
313.19 K, 912.33 kPa | 1028.3 ± 0.5
313.19 K, 1014.1 kPa | 1028.8 ± 0.5
313.19 K, 1115.4 kPa | 1029.3 ± 0.5
313.19 K, 1219.9 kPa | 1029.9 ± 0.5
313.19 K, 1317.7 kPa | 1030.4 ± 0.5
313.19 K, 1421.7 kPa | 1031 ± 0.5
313.19 K, 1522.3 kPa | 1031.5 ± 0.5
313.19 K, 1625.4 kPa | 1032.1 ± 0.5
313.19 K, 1723.2 kPa | 1032.6 ± 0.5
313.19 K, 1824.4 kPa | 1033.1 ± 0.5
313.19 K, 1926.4 kPa | 1033.6 ± 0.5
313.19 K, 2026.8 kPa | 1034.1 ± 0.5
313.19 K, 2129.3 kPa | 1034.7 ± 0.5
313.19 K, 2229.4 kPa | 1035.2 ± 0.5
313.19 K, 2333 kPa | 1035.7 ± 0.5
313.19 K, 2433.2 kPa | 1036.2 ± 0.5
313.19 K, 2532.9 kPa | 1036.7 ± 0.5
323.14 K, 101.12 kPa | 1015.4 ± 0.5
323.14 K, 206.5 kPa | 1016 ± 0.5
323.14 K, 310.87 kPa | 1016.6 ± 0.5
323.14 K, 408.14 kPa | 1017.1 ± 0.5
323.14 K, 510.78 kPa | 1017.8 ± 0.5
323.14 K, 609.67 kPa | 1018.3 ± 0.5
323.14 K, 712.01 kPa | 1018.9 ± 0.5
323.14 K, 812.42 kPa | 1019.5 ± 0.5
323.14 K, 916.79 kPa | 1020.1 ± 0.5
323.14 K, 1012.2 kPa | 1020.6 ± 0.5
323.14 K, 1115.9 kPa | 1021.2 ± 0.5
323.14 K, 1217.9 kPa | 1021.8 ± 0.5
323.14 K, 1321.1 kPa | 1022.4 ± 0.5
323.14 K, 1420.2 kPa | 1022.9 ± 0.5
323.14 K, 1520.1 kPa | 1023.5 ± 0.5
323.14 K, 1622.5 kPa | 1024 ± 0.5
323.14 K, 1723.3 kPa | 1024.6 ± 0.5
323.14 K, 1823.7 kPa | 1025.1 ± 0.5
323.14 K, 1926.1 kPa | 1025.6 ± 0.5
323.14 K, 2028 kPa | 1026.2 ± 0.5
323.14 K, 2128.7 kPa | 1026.7 ± 0.5
323.14 K, 2232.2 kPa | 1027.3 ± 0.5
323.14 K, 2331 kPa | 1027.8 ± 0.5
323.14 K, 2434.8 kPa | 1028.4 ± 0.5
323.14 K, 2533.2 kPa | 1028.9 ± 0.5
333.08 K, 104.06 kPa | 1007 ± 0.5
333.08 K, 209.13 kPa | 1007.6 ± 0.5
333.08 K, 305.29 kPa | 1008.2 ± 0.5
333.08 K, 408.54 kPa | 1008.8 ± 0.5
333.08 K, 507.94 kPa | 1009.4 ± 0.5
333.08 K, 610.79 kPa | 1010.1 ± 0.5
333.08 K, 708.67 kPa | 1010.6 ± 0.5
333.08 K, 812.42 kPa | 1011.3 ± 0.5
333.08 K, 913.04 kPa | 1011.9 ± 0.5
333.08 K, 1015.7 kPa | 1012.5 ± 0.5
333.08 K, 1115.2 kPa | 1013 ± 0.5
333.08 K, 1217.7 kPa | 1013.7 ± 0.5
333.08 K, 1318 kPa | 1014.2 ± 0.5
333.08 K, 1419 kPa | 1014.8 ± 0.5
333.08 K, 1520.9 kPa | 1015.4 ± 0.5
333.08 K, 1624.9 kPa | 1016 ± 0.5
333.08 K, 1724.2 kPa | 1016.6 ± 0.5
333.08 K, 1824.2 kPa | 1017.1 ± 0.5
333.08 K, 1925.9 kPa | 1017.7 ± 0.5
333.08 K, 2031 kPa | 1018.3 ± 0.5
333.08 K, 2132.9 kPa | 1018.9 ± 0.5
333.08 K, 2232.5 kPa | 1019.4 ± 0.5
333.08 K, 2336 kPa | 1020 ± 0.5
333.08 K, 2438 kPa | 1020.6 ± 0.5
333.08 K, 2536.6 kPa | 1021.1 ± 0.5
343.04 K, 103.66 kPa | 998.4 ± 0.5
343.04 K, 208.53 kPa | 999 ± 0.5
343.04 K, 305.8 kPa | 999.7 ± 0.5
343.04 K, 406.72 kPa | 1000.3 ± 0.5
343.04 K, 510.78 kPa | 1001 ± 0.5
343.04 K, 609.67 kPa | 1001.6 ± 0.5
343.04 K, 711.4 kPa | 1002.3 ± 0.5
343.04 K, 812.12 kPa | 1002.9 ± 0.5
343.04 K, 912.13 kPa | 1003.5 ± 0.5
343.04 K, 1014 kPa | 1004.1 ± 0.5
343.04 K, 1115.1 kPa | 1004.8 ± 0.5
343.04 K, 1220.8 kPa | 1005.4 ± 0.5
343.04 K, 1318.1 kPa | 1006 ± 0.5
343.04 K, 1420.7 kPa | 1006.6 ± 0.5
343.04 K, 1520.6 kPa | 1007.2 ± 0.5
343.04 K, 1621 kPa | 1007.9 ± 0.5
343.04 K, 1722.2 kPa | 1008.4 ± 0.5
343.04 K, 1824.6 kPa | 1009.1 ± 0.5
343.04 K, 1925.9 kPa | 1009.7 ± 0.5
343.04 K, 2028.3 kPa | 1010.2 ± 0.5
343.04 K, 2130 kPa | 1010.8 ± 0.5
343.04 K, 2233.9 kPa | 1011.4 ± 0.5
343.04 K, 2330.6 kPa | 1011.9 ± 0.5
343.04 K, 2432 kPa | 1012.5 ± 0.5
343.04 K, 2536.8 kPa | 1013.1 ± 0.5
352.98 K, 105.78 kPa | 990 ± 0.5
352.98 K, 204.88 kPa | 990.6 ± 0.5
352.98 K, 305.29 kPa | 991.3 ± 0.5
352.98 K, 408.64 kPa | 992 ± 0.5
352.98 K, 509.16 kPa | 992.6 ± 0.5
352.98 K, 610.18 kPa | 993.3 ± 0.5
352.98 K, 707.96 kPa | 993.9 ± 0.5
352.98 K, 810.8 kPa | 994.7 ± 0.5
352.98 K, 913.45 kPa | 995.3 ± 0.5
352.98 K, 1013.5 kPa | 996 ± 0.5
352.98 K, 1116.7 kPa | 996.6 ± 0.5
352.98 K, 1217.9 kPa | 997.2 ± 0.5
352.98 K, 1316.1 kPa | 997.9 ± 0.5
352.98 K, 1418 kPa | 998.5 ± 0.5
352.98 K, 1519.3 kPa | 999.1 ± 0.5
352.98 K, 1623.4 kPa | 999.8 ± 0.5
352.98 K, 1723.3 kPa | 1000.4 ± 0.5
352.98 K, 1821.8 kPa | 1001 ± 0.5
352.98 K, 1928 kPa | 1001.7 ± 0.5
352.98 K, 2027.3 kPa | 1002.3 ± 0.5
352.98 K, 2129.3 kPa | 1002.9 ± 0.5
352.98 K, 2237.1 kPa | 1003.5 ± 0.5
352.98 K, 2331.9 kPa | 1004.2 ± 0.5
352.98 K, 2437.8 kPa | 1004.8 ± 0.5
352.98 K, 2536.4 kPa | 1005.4 ± 0.5
362.91 K, 106.69 kPa | 981.5 ± 0.5
362.91 K, 203.97 kPa | 982.2 ± 0.5
362.91 K, 305.9 kPa | 982.9 ± 0.5
362.91 K, 407.53 kPa | 983.6 ± 0.5
362.91 K, 510.78 kPa | 984.3 ± 0.5
362.91 K, 608.36 kPa | 985 ± 0.5
362.91 K, 708.57 kPa | 985.7 ± 0.5
362.91 K, 811.21 kPa | 986.3 ± 0.5
362.91 K, 912.33 kPa | 987 ± 0.5
362.91 K, 1013.1 kPa | 987.7 ± 0.5
362.91 K, 1114.2 kPa | 988.3 ± 0.5
362.91 K, 1215.1 kPa | 989 ± 0.5
362.91 K, 1318.3 kPa | 989.7 ± 0.5
362.91 K, 1418.7 kPa | 990.3 ± 0.5
362.91 K, 1520.8 kPa | 991 ± 0.5
362.91 K, 1622.2 kPa | 991.7 ± 0.5
362.91 K, 1723.8 kPa | 992.3 ± 0.5
362.91 K, 1825.8 kPa | 993 ± 0.5
362.91 K, 1926.1 kPa | 993.6 ± 0.5
362.91 K, 2030.7 kPa | 994.3 ± 0.5
362.91 K, 2128.7 kPa | 994.9 ± 0.5
362.91 K, 2230.1 kPa | 995.5 ± 0.5
362.91 K, 2332.4 kPa | 996.2 ± 0.5
362.91 K, 2434.6 kPa | 996.8 ± 0.5
362.91 K, 2536.1 kPa | 997.5 ± 0.5
